Patent US20210401926A1, “PHARMACEUTICAL FORMULATIONS OF PEPTIDE INHIBITORS” (CANIMGUIDE THERAPEUTICS AB, priority 2018, published 2021)
Where no end group is shown, it is not given here.

Columns and labels:
[1] = tested on: healthy PBMC's; assay: PBMC activation, CD69 or CD71 by flow cytometry, normal human AB serum; format: cell-based; conditions: 40 μg/mL, 24 hours, RPMI plus 10% human AB serum
Description: FIG. 2A-B are a series of graphs illustrating effects of the full length peptide P28R and the 6 amino acid central sequence (32230, FFVKLS, SEQ ID NO: 1) in culture medium containing normal human AB serum. Activation is determined as percentage of cells with enhanced marker CD69 or CD71 using flow cytometry. PBMCs were incubated with the peptides (40 μg/mL) for 24 hours in RPMI plus 10% human AB serum. FIG. 2A illustrates the results of two experiments (420 and 422) performed for each peptide. FIG. 2B illustrates the results of two experiments (424 and 426) performed for each peptide.
P28R (SEQ ID NO: 2) can stimulate PBMC's from healthy controls in short term cultures when RPMI plus 10% normal human AB serum is used as culture medium. Truncations of P28R were also assessed for their ability to activate PBMC's. PBMCs were incubated with the peptides (40 μg/mL) for 24 hours in RPMI plus 10% human AB serum. PBMC activation was measured as percent cells with enhanced expression of either CD69 (FIG. 2A) or CD71 (FIG. 2B) using flow cytometry. Two experiments were performed for each peptide.
A test for direct stimulatory effects on immune cells was performed.

[2] = tested on: PBMCs; assay: PBMC activation (CD69) in culture medium containing cancer sera; format: cell-based; conditions: sera from dogs with cancer or human patients with cancer instead of normal AB serum
Description: FIG. 3 is a graph illustrating a comparison of the full length peptide P28R and the 6 amino acid “P28 core” sequence (32230, FFVKLS, SEQ ID NO: 1) in culture medium containing sera from two different cancer patients (“human ca serum 1” 430 and (“human ca serum 2” 432).
Additionally, P28R and P28 core were tested for their ability to alleviate immunosuppression in cancer cells.

[3] = tested on: PBMCs; assay: Direct binding to PBMCs (immunocytochemistry, rosetting of coated beads); conditions: immunocytochemistry or rosetting of coated beads

Row | Substance | PBMC activation (enhanced expression of CD69 or CD71) [1] | PBMC activation (enhanced expression of CD69) [2] | binding to PBMCs [3]
1 | peptide 32251: truncation of P28R, SEQ ID NO: 4 (KKLDTFFPKLSLFTER; Peptide 32251) | did not activate healthy PBMC's |  | 
2 | FFVKLS (Peptide 32230) | did not activate healthy PBMC's | activated PBMCs | 
3 | biotinylated P28R: biotinylated P28R (KKLDTFFVKLSLFTER; also: biotinylated, site not given here) |  |  | bind directly to PBMCs
